pIC50: −log10 of the molar value. ≈ marks a conversion by molar mass, not a printed value. Where “and” joins values, the source holds several entries; their conditions need not be identical. Equal values may be shown once. Read-outs that look alike come from different tables or passages of the source. Marks after values point to notes of the source that are not given here.

This note sets out measurements from US20260250312A1, “ANTIBACTERIAL COMPOUNDS ELIMINATING DORMANT BACTERIAL CELLS” (UNIVERSITÉ D'AIX-MARSEILLE, priority 2022, published 2026).

The subject of data set [1] is E. coli non-persister cells. Nature of the data set: Anti-persister activity test, non-persister cells. To be noted: for viability at 250 µM: read-out: Non-persister cell survival rate 96 h, concentration used 250 μM, 4 hours treatment; for viability at 125 µM: read-out: Non-persister cell survival rate 96 h, concentration used 125 μM, 4 hours treatment; for activity on non-persister cells (in words): E. coli non-persister cells, Table 8 conditions. It is filed as cell-based, Escherichia coli. On the procedure:
(§1) Anti-persister activity test: Escherichia coli (E. coli) persister cells were generated and isolated as described by MARQUES, C. N. H. et al. (Applied and Environmental Microbiology 2014, Vol. 80, No. 22, pp. 6976-6991). E. coli persister cells were compared to E. coli non-persister cells. 1 mL persister or non-persister bacteria culture was added in a 1.5 mL microtube with each of the compounds to be tested or ciprofloxacin as a […], and incubated at 37° C. with 160 rpm shaking for 4 hours. After 4 hours treatment with the compounds, the microtubes were centrifuged at 3,500g for 5 minutes and the pellets were resuspended in 1 mL of fresh drug free RM broth (10 g/L M9 salt, 2% casamino acids, 1 mM MgCl2, 1% glycerol). Resuspended bacteria were then plated over LB agar plates and incubated at 37° C. Bacterial colonies were enumerated after 24, 48 and 96 hours to estimate the survival rate.

Data set [2] concerns Pseudomonas aeruginosa (ATCC27853). Put plainly: Microdilution MIC assay (CLSI-based), P. aeruginosa. To be noted: 20 hours incubation at 35-37° C., MHB; for MIC: Pseudomonas aeruginosa, ATCC27853, 20 h, read-out: Minimum inhibitory concentration P. aeruginosa ATCC27853. It is filed as cell-based. An outline of the steps: (§2)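 Broth microdilution per modified CLSI guidelines in Mueller Hinton broth, 200 μL, inoculum ca. 5×10^5 CFU/mL; compounds tested as salts, twofold dilutions from 0.2 mg/mL, in triplicate. MIC determined from OD at 620 nm after incubation.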
Background: Broth dilution looks for growth in wells or tubes with falling amounts of substance.

For data set [3], the system named is Escherichia coli (E. coli) persister cells. Put plainly: Anti-persister activity test, persister cells. It is filed as cell-based. To be noted: for anti-persister activity (in words): E. coli persister cells, Table 8 conditions; for viability at 250 µM: read-out: Persister cell survival rate 96 h, concentration used 250 μM, 4 hours treatment; for viability at 125 µM: read-out: Persister cell survival rate 96 h, concentration used 125 μM, 4 hours treatment. On the procedure: as §1

Data set [4] deals with Enterococcus faecalis (ATCC29212). Put plainly: Microdilution MIC assay (CLSI-based), E. faecalis. It is filed as cell-based. Particulars: 20 hours incubation at 35-37° C., MHB; for MIC: Enterococcus faecalis, ATCC29212, 20 h, read-out: Minimum inhibitory concentration E. faecalis ATCC29212. An outline of the steps: as §2
For data set [5], the system named is Escherichia coli (ATCC28922). Nature of the data set: Microdilution MIC assay (CLSI-based), E. coli. The data set is classed as cell-based. To be noted: 20 hours incubation at 35-37° C., MHB; for MIC: Escherichia coli, ATCC28922, 20 h, read-out: Minimum inhibitory concentration E. coli ATCC28922. An outline of the steps: as §2
Another data set relates to CHO-K1 cells. Nature of the data set: WST1 cytotoxicity test. The data set is classed as cell-based, Chinese hamster. To be noted: for IC50: CHO-K1, 24 h. An outline of the steps: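 CHO-K1 cells pre-cultured 24 h, then exposed 24 h at 37 °C to increasing compound concentrations. Viability read as WST-1 formazan absorbance at 450 nm after 20 min; dose-response fitted by nonlinear regression.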
(Formazan colour is commonly taken as a measure of viable cells.)

Data set [6] concerns Staphylococcus aureus (ATCC25923). Nature of the data set: Microdilution MIC assay (CLSI-based), S. aureus. It is filed as cell-based. Particulars: 20 hours incubation at 35-37° C., MHB; for MIC: Staphylococcus aureus, ATCC25923, 20 h, read-out: Minimum inhibitory concentration S. aureus ATCC25923. Put shortly:
as §2

Setting [7] is: Cricetulus griseus, WST1, 24 hours at 37° C., read-out: IC50 CHO.
The mark [8] stands for this setting: Cricetulus griseus, CHO-K1, WST1, as printed in Table 8, read-out: Toxicity IC50 CHO.
The mark [9] stands for this setting: concentration used 250 μM, 4 hours treatment.

For `COC(=O)[C@H](NC(=O)CC[C@@H](C)[C@H]1CCC2C3C(C[C@H](O)[C@@]21C)[C@@]1(C)CC[C@H](NCCCN(CCCN)CCCN)C[C@H]1C[C@H]3O)C(C)C` (stereo partly drawn) [Compound S060, methyl ((4R)-4-((3S,5S,7R,10S,12S,13R,17R)-3-((3-(bis(3-aminopropyl)amino)propyl)amino)-7,12-dihydroxy-10,13-dimethylhexadecahydro-1H-cyclopenta[a]phenanthren-17-yl)pentanoyl)-D-valinate], the viability at 250 µM in data set [1] (Escherichia coli, 4 h) stood at 3.8%; in data set [3] (Escherichia coli, 4 h), 2%. The MIC was 160 µM and 128 µg/mL in data set [2]; 160 µM and 128 µg/mL in data set [4]; 160 µM and 128 µg/mL in data set [5]; 40 µM and 32 µg/mL in data set [6]. Moreover, the “anti-persister activity (in words)” value in data set [3] is “very potent anti-persister activity”. For the same molecule, the “toxicity results (in words)” value with CHO-K1 cells is “good toxicity results”. The IC50 (in general, the point on the concentration scale where inhibition reaches its midpoint) in the data set on CHO-K1 cells (setting [7]) was 186 µM and 129 µg/mL. Also, the pIC50 (usually −log10 of the IC50, conventionally taken in molar units) in the data set with CHO-K1 cells (setting [8]) is 3.73.

With `COC(=O)[C@H](NC(=O)CC[C@@H](C)[C@H]1CCC2C3CC[C@@H]4C[C@@H](NCCCNCCCCNCCCN)CC[C@]4(C)C3C[C@H](O)[C@@]21C)C(C)C` (stereo partly drawn) [Compound S052, methyl ((4R)-4-((3S,5R,10S,12S,13R,17R)-3-((3-((4-((3-aminopropyl)amino)butyl)amino)propyl)amino)-12-hydroxy-10,13-dimethylhexadecahydro-1H-cyclopenta[a]phenanthren-17-yl)pentanoyl)-D-valinate], the viability at 62.5 µM was determined as 0% in data set [1] (Escherichia coli, 4 h, read-out: Non-persister cell survival rate 96 h, concentration used 62.5 μM, 4 hours treatment) and 0% in data set [3] (Escherichia coli, 4 h, read-out: Persister cell survival rate 96 h, concentration used 62.5 μM, 4 hours treatment). Moreover, the MIC in data set [2] is 12.5 µM and 8 µg/mL; in data set [4], 25 µM and 16 µg/mL; in data set [5] it was 12.5 µM and 8 µg/mL; in data set [6], 3.12 µM and 2 µg/mL. For the same molecule, in data set [3], the “anti-persister activity (in words)” value was “both anti-persister and anti-bacterial activities”. Also, the “toxicity results (in words)” value in the data set on CHO-K1 cells was “good toxicity results”. Further, the IC50 with CHO-K1 cells (setting [7]) was 50 µM and 34 µg/mL. Further, in the data set on CHO-K1 cells (setting [8]), the pIC50 is 4.30.

Turning to `COC(=O)[C@@H](Cc1ccccc1)NC(=O)CC[C@@H](C)[C@H]1CCC2C3C(CC[C@@]21C)[C@@]1(C)CC[C@H](NCCNCCNCCN)C[C@H]1C[C@H]3O` (stereo partly drawn) [Compound S010, methyl ((4R)-4-((3S,5S,7R,10S,13R,17R)-3-((2-((2-((2-aminoethyl)amino)ethyl)amino)ethyl)amino)-7-hydroxy-10,13-dimethylhexadecahydro-1H-cyclopenta[a]phenanthren-17-yl)pentanoyl)-D-phenylalaninate], the viability at 250 µM was determined as 4.2% in data set [1] (Escherichia coli, 4 h) and 0.8% in data set [3] (Escherichia coli, 4 h). The MIC was 50 µM and 32 µg/mL in data set [2]; 12.5 µM and 8 µg/mL in data set [4]; 50 µM and 32 µg/mL in data set [5]; 12.5 µM and 8 µg/mL in data set [6]. Further, the “anti-persister activity (in words)” value in data set [3] was “very potent anti-persister activity”. In the data set on CHO-K1 cells, the “toxicity results (in words)” value is listed as “good toxicity results”. Also, the IC50 in the data set on CHO-K1 cells (setting [7]) was 114 µM and 77.4 µg/mL. In addition, the pIC50 in the data set with CHO-K1 cells (setting [8]) was 3.94.

For `COC(=O)[C@H](Cc1ccccc1)NC(=O)CC[C@@H](C)[C@H]1CCC2C3C(CC[C@@]21C)[C@@]1(C)CC[C@H](NCCCNCCCCNCCCN)C[C@H]1C[C@H]3O` (stereo partly drawn) [Compound S014, methyl ((4R)-4-((3S,5S,7R,10S,13R,17R)-3-((3-((4-((3-aminopropyl)amino)butyl)amino)propyl)amino)-7-hydroxy-10,13-dimethylhexadecahydro-1H-cyclopenta[a]phenanthren-17-yl)pentanoyl)-L-phenylalaninate], the viability at 125 µM in data set [1] (Escherichia coli, 4 h) amounted to 0%; in data set [3] (Escherichia coli, 4 h), 0%. Besides, the MIC in data set [2] is 25 µM and 16 µg/mL; in data set [4], 12.5 µM and 8 µg/mL; in data set [5], 6.25 µM and 4 µg/mL; in data set [6] it was 3.12 µM and 2 µg/mL. The “anti-persister activity (in words)” value in data set [3] is “both anti-persister and anti-bacterial activities”. Moreover, the “toxicity results (in words)” value with CHO-K1 cells was “good toxicity results”. Also, the IC50 in the data set with CHO-K1 cells (setting [7]) was 77.6 µM and 57.3 µg/mL. The pIC50 in the data set with CHO-K1 cells (setting [8]) is 4.11.

With `COC(=O)[C@H](Cc1ccc(O)cc1)NC(=O)CC[C@@H](C)[C@H]1CCC2C3C(CC[C@@]21C)[C@@]1(C)CC[C@H](NCCCNCCNCCCN)C[C@H]1C[C@H]3O` (stereo partly drawn) [Compound S042, methyl ((4R)-4-((3S,5S,7R,10S,13R,17R)-3-((3-((2-((3-aminopropyl)amino)ethyl)amino)propyl)amino)-7-hydroxy-10,13-dimethylhexadecahydro-1H-cyclopenta[a]phenanthren-17-yl)pentanoyl)-L-tyrosinate], in data set [1], the “activity on non-persister cells (in words)” value is “good activity on non-persister cells”. The viability at 125 µM in data set [1] (Escherichia coli, 4 h) amounted to 0%; in data set [3] (Escherichia coli, 4 h), 0.1%. The MIC is 25 µM and 16 µg/mL in data set [2]; 25 µM and 16 µg/mL in data set [4]; 12.5 µM and 8 µg/mL in data set [5]; 6.25 µM and 4 µg/mL in data set [6]. Besides, the “anti-persister activity (in words)” value in data set [3] was “not as good on persister cells”. Also, in the data set with CHO-K1 cells, the “toxicity results (in words)” value was “good toxicity results”. Moreover, the IC50 with CHO-K1 cells (setting [7]) was 51.4 µM and 37.3 µg/mL. Moreover, the pIC50 in the data set with CHO-K1 cells (setting [8]) is 4.29.

Take `COC(=O)[C@H](NC(=O)CC[C@@H](C)[C@H]1CCC2C3C(CC[C@@]21C)[C@@]1(C)CC[C@H](NCCCNCCCN)C[C@H]1C[C@H]3O)C(C)C` (stereo partly drawn) [Compound S017, methyl ((4R)-4-((3S,5S,7R,10S,13R,17R)-3-((3-((3-aminopropyl)amino)propyl)amino)-7-hydroxy-10,13-dimethylhexadecahydro-1H-cyclopenta[a]phenanthren-17-yl)pentanoyl)-D-valinate]: the “activity on non-persister cells (in words)” value in data set [1] is “good activity on non-persister cells”. The “Non-persister cell survival rate 96 h” value in data set [1] (setting [9]) came to 0.0%. The “Minimum inhibitory concentration P. aeruginosa ATCC27853” value in data set [2] was 50* μM and 32* μg/mL. For the same molecule, in data set [3], the “anti-persister activity (in words)” value is “not as good on persister cells”. The “Persister cell survival rate 96 h” value in data set [3] (setting [9]) is 0.6%. For the same molecule, the “Minimum inhibitory concentration E. faecalis ATCC29212” value in data set [4] is 25* μM and 16* μg/mL. Besides, the “Minimum inhibitory concentration E. coli ATCC28922” value in data set [5] was 12.5* μM and 8* μg/mL. Further, the “IC50 CHO” value in the data set on CHO-K1 cells (WST1, 24 hours at 37° C.) was determined as 33.23 µg/mL (≈ 53.7 µM). In addition, the pIC50 in the data set with CHO-K1 cells (WST1, 24 hours at 37° C., read-out: IC50 CHO) is 4.27; with CHO-K1 cells (WST1, Table 8, read-out: Toxicity IC50 CHO) it was 4.27. Moreover, the “Minimum inhibitory concentration S. aureus ATCC25923” value in data set [6] is 12.5* μM and 8* μg/mL.

In the case of `O=C(O)c1cn(C2CC2)c2cc(N3CCNCC3)c(F)cc2c1=O` [Ciprofloxacin, ciprofloxacin, reference compound], the viability at 200 µM in data set [1] (Escherichia coli, concentration used 200 μM, 4 hours treatment, read-out: Non-persister cell survival rate 96 h) stood at 0%; in data set [3] (Escherichia coli, concentration used 200 μM, 4 hours treatment, read-out: Persister cell survival rate 96 h) it was 5.6%.
